Measured values published in US5386832A, “Liver function breath test using aromatic amino acids” (New England Deaconess Hospital, priority 1993, dated 1995).
Values joined by “and” are separate entries in the source; they are usually repeats but may differ in a detail not shown here. Identical values can stand only once.

Test system: liver function
Assay: breath test: oral 13C-phenylalanine, labeled CO2 in expired breath
Type: in vivo, patient
Details: 100 mg oral; for maximum percent dose oxidized within 10 minutes / cumulative percent dose oxidized: group mean; for cumulative percent dose oxidized: 1 hr; for Max. % Dose Oxidized/10 min. / Cumulative 1 hr % Dose Oxidized: overnight fast; for Max. % Dose Oxidized/10 min.: breath every ten minutes for one hour; for Cumulative 1 hr % Dose Oxidized: over one hour
Description: All of the participants in the test are first required to fast overnight. This minimizes metabolic effects of meal absorption and the contribution of endogenous label appearing in the breath from natural levels of the endogenous isotope in the diet. While the preferred isotope for use in the test is ^13 C, other carbon isotopes (or even nitrogen isotopes) could be used. At least two baseline breath samples are collected and the mean isotope value in these samples is used as a background. This background is subtracted from the ^13 C levels determined following isotopic administration in order to obtain the change in ^13 C level.
All breath samples, both those collected prior to administration of the isotope and those after administration, are collected with a commercially available breath sampler such as a Quintron AlveoSampler. These samplers have a mouthpiece and a collection bag with a one-way valve there between. The breath samples are trapped in a syringe and the contents of the syringe are injected into a […] evacuation tube such as a Exetainer tube.
In the preferred mode of the invention, ^13 C-phenylalanine is used as the isotope tracer. One hundred mg doses of L-1-^13 C-phenylalanine are dissolved in 50 ml of water and the dose is administered orally. The dose bottle is washed with another 50ml of water and the wash is administered to the patient to make sure that all the phenylalanine was released from the dose bottle. Although intravenous or intramuscular administration of the isotope tracer could be used, the oral dose acts sufficiently and is much easier to administer.
Breath samples are collected every ten minutes for one hour after dosage. The amount of labeled isotope is measured using an isotope ratio mass spectrometer such a Europa Scientific Gas Isotope Ratio Mass Spectrometer (Europa Scientific, Inc., Cincinnati, Ohio). The ratio of ^13 C-CO2 to ^12 C-CO2 (mass ratio 45:44) is measured and compared to a reference CO2 tank. The reference CO2 is calibrated to the international PDB standard and the amount of labeled ^13 C is determined by the following formula
The mean Atom % ^13 C values are subtracted to determine the Atom % Excess ^13 C. The % Dose Oxid (or percent dose oxidized) is calculated from formulas 2 and 3.
Total ^13 C Excreted[…]%^13 C(from AUC)×5×(time in
min.)×Body Surface Area (m^2) (2)
% Dose Oxid=Total ^13 C Excreted/Dose (mmoles)×100% (3)
Two groups of subjects were used to test the efficacy of the present system. The first group contained 16 normal subjects while the second had 12 patients with various levels of liver disease.

[1] = 12 patients with liver disease, P<0.05 vs control
[2] = control group, 16 normal subjects, P<0.05 vs patients
[3] = individual control (normal) subjects 1-16
[4] = individual patients 17-28 with liver disease

N[C@@H](Cc1ccccc1)[13C](=O)O [L-1-^13 C-phenylalanine]
maximum percent dose oxidized within 10 minutes [1]: 0.50±0.27% | cumulative percent dose oxidized [1]: 1.82±0.93% | maximum percent dose oxidized within 10 minutes [2]: 2.15±0.84% | cumulative percent dose oxidized [2]: 7.62±2.87% | Max. % Dose Oxidized/10 min. [3]: 2.46% and 4.53% and 1.48% and 1.57% and 2.81% and 2.82% and 1.20% and 2.31% and 1.05% and 1.65% and 2.19% and 2.37% and 2.60% and 2.11% and 1.75% | Cumulative 1 hr % Dose Oxidized [3]: 8.56% and 15.53% and 3.96% and 6.52% and 7.14% and 9.86% and 11.12% and 3.78% and 7.34% and 4.44% and 6.21% and 7.78% and 7.71% and 7.50% and 7.57% and 6.83% | Max. % Dose Oxidized/10 min. [4]: 0.43% and 0.62% and 0.36% and 0.93% and 0.49% and 0.17% and 0.38% and 0.58% and 1.09% and 0.46% | Cumulative 1 hr % Dose Oxidized [4]: 2.16% and 2.81% and 1.25% and 2.00% and 1.59% and 0.51% and 1.29% and 1.46% and 0.61% and 2.22% and 3.88% and 2.02%
